Results from PubChem BioAssay (NCI).
Several values for one entry are separate records, joined by “and”; a condition that tells them apart may be missing. Identical values can stand only once.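 Values below derive from 48-hour exposures of cells grown in 96-well plates, with endpoints linearly interpolated between the two concentrations bracketing the appropriate inhibition level. GI50: concentration for 50% inhibition of growth. Definition used: TGI = concentration required for complete inhibition of growth.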

Experiments:
Experiment in all cases: DTP human tumour cell line panel, 48 h
[1] = system: LOX IMVI melanoma
[2] = system: SF-539 CNS
[3] = system: UACC-257 melanoma
[4] = system: HCT-116 colon
[5] = system: SK-MEL-5 melanoma
[6] = system: CAKI-1 renal
[7] = system: KM12 colon
[8] = system: SF-295 CNS
[9] = system: HCC-2998 colon
[10] = system: NCI-H522 lung

`COc1ccc(NC(=O)C2=CC(=O)c3ccc(O)cc3C2=O)c(OC)c1` gave a TGI [1] greater than 100 µM, a TGI [2] greater than 100 µM and a TGI [3] greater than 100 µM. The TGI [4] was greater than 100 µM, the TGI [5] was greater than 100 µM and the TGI [6] was greater than 100 µM. It also gave a TGI [7] greater than 100 µM, a TGI [8] greater than 100 µM and a TGI [9] greater than 100 µM.
`O=C(O)c1c[nH]c2c(ccc3[nH]cc(C(=O)O)c(=O)c32)c1=O` was tested, and the TGI [1] was greater than 100 µM, the TGI [2] was greater than 100 µM and the TGI [3] was greater than 100 µM. The TGI [4] was greater than 100 µM, the TGI [10] was greater than 100 µM and the TGI [5] was greater than 100 µM. It also gave a TGI [6] greater than 100 µM, a TGI [7] greater than 100 µM and a TGI [8] greater than 100 µM.
With `O=C(O)c1ccccc1C1c2ccc(Cl)cc2Oc2cc(Cl)ccc21` the TGI [1] was greater than 100 µM, the TGI [2] was greater than 100 µM and the TGI [3] was greater than 100 µM. The TGI [10] was greater than 100 µM, the TGI [5] was greater than 100 µM and the TGI [6] was greater than 100 µM. For the same compound, the TGI [7] was greater than 100 µM, the TGI [8] was greater than 100 µM and the TGI [9] was greater than 100 µM.
`O=C(NCCCl)NCc1ccccc1` was tested, and the TGI [1] was greater than 100 µM, the TGI [3] was greater than 100 µM and the TGI [4] was greater than 100 µM. For the same compound, the TGI [10] was greater than 100 µM, the TGI [5] was greater than 100 µM and the TGI [6] was greater than 100 µM. The TGI [7] was greater than 100 µM, the TGI [8] was greater than 100 µM and the TGI [9] was greater than 100 µM.
Work on `Clc1ccc(Nc2ncnc3c2sc2ncccc23)c(Cl)c1` yielded a GI50 [1] of 21.4 nM, a TGI [1] greater than 100 µM and a GI50 [2] of 22.5 nM. The TGI [2] was 7.37 µM, the GI50 [3] was 55.7 nM and the TGI [3] was greater than 100 µM. It also gave a GI50 [4] of less than 10 nM, a TGI [4] greater than 100 µM and a GI50 [10] of less than 12.2 nM. The TGI [10] was greater than 100 µM, the GI50 [5] was 25.4 nM and the TGI [5] was greater than 100 µM. For the same compound, the GI50 [6] was less than 10.7 nM, the TGI [6] was greater than 33.9 µM and the GI50 [7] was 3390 nM. It also gave a TGI [7] greater than 100 µM, a GI50 [8] of 30.9 nM and a TGI [8] greater than 100 µM.
Work on `C=C1CCC2(C(C)=O)COC1(C)O2` (stereo unspecified) yielded a TGI [1] greater than 100 µM, a TGI [2] greater than 100 µM and a TGI [3] greater than 100 µM. For the same compound, the TGI [4] was greater than 100 µM, the TGI [10] was greater than 10 µM and the TGI [5] was greater than 100 µM. It also gave a TGI [7] greater than 100 µM and a TGI [8] greater than 100 µM.
`O=C1C(Cl)C(c2ccc([N+](=O)[O-])cc2)N1n1cnc2ccccc2c1=O` (stereo unspecified) gave a TGI [1] greater than 100 µM, a TGI [3] greater than 100 µM and a TGI [4] greater than 100 µM. For the same compound, the TGI [10] was greater than 100 µM, the TGI [5] was greater than 100 µM and the TGI [6] was greater than 100 µM. For the same compound, the TGI [7] was greater than 100 µM, the TGI [8] was 68.9 µM and the TGI [9] was greater than 100 µM.
`O=c1sc(-c2nc3ccccc3[nH]2)c(/N=C/c2ccccc2)n1-c1ccccc1` showed a TGI [1] greater than 100 µM, a TGI [2] greater than 100 µM and a TGI [3] greater than 100 µM. The TGI [10] was greater than 100 µM, the TGI [5] was greater than 100 µM and the TGI [6] was greater than 100 µM. The TGI [7] was greater than 100 µM, the TGI [8] was greater than 100 µM and the TGI [9] was greater than 100 µM.
`Cc1cc2c(C)nn(Cc3ccccc3Cl)c2c(C#N)c1C` was tested, and the TGI [1] was greater than 100 µM, the TGI [2] was greater than 100 µM and the TGI [3] was greater than 100 µM. For the same compound, the TGI [4] was greater than 100 µM, the TGI [8] was greater than 100 µM and the TGI [9] was greater than 100 µM.
Compound `C/C(CC(=O)Nc1ccc([N+](=O)[O-])cc1)=N\Nc1ccc([N+](=O)[O-])cc1[N+](=O)[O-]` has a TGI [1] greater than 100 µM, a TGI [2] greater than 100 µM and a TGI [3] greater than 100 µM. The TGI [4] was greater than 100 µM, the TGI [10] was 85.5 µM and the TGI [5] was greater than 100 µM. For the same compound, the TGI [7] was greater than 100 µM, the TGI [8] was greater than 100 µM and the TGI [9] was 65.4 µM.
`COc1cc(/C=C2\CC3C4CCC5=CC(=O)CC[C@]5(C)C4CC[C@]3(C)C2=O)ccc1OCCN1CCCCC1` (stereo partly specified) gave a GI50 [1] of 1420 nM, a TGI [1] of 3.3 µM and a GI50 [3] of 4800 nM. It also gave a TGI [3] of 18.4 µM, a GI50 [4] of 2110 nM and a TGI [4] of 5.75 µM. It also gave a GI50 [10] of 8950 nM, a TGI [10] greater than 100 µM and a GI50 [5] of 1510 nM. It also gave a TGI [5] of 3.09 µM, a GI50 [6] of 2290 nM and a TGI [6] of 5.89 µM. For the same compound, the GI50 [7] was 1690 nM, the TGI [7] was 3.52 µM and the GI50 [8] was 2020 nM. It also gave a TGI [8] of 4.24 µM, a GI50 [9] of 3260 nM and a TGI [9] of 12.5 µM.
`c1cnc2nc3n(c2c1)CSC3` was tested, and the TGI [1] was greater than 100 µM, the TGI [2] was greater than 100 µM and the TGI [3] was greater than 100 µM. For the same compound, the TGI [10] was greater than 100 µM, the TGI [5] was greater than 100 µM and the TGI [6] was greater than 100 µM. It also gave a TGI [7] greater than 100 µM, a TGI [8] greater than 100 µM and a TGI [9] greater than 100 µM.
For `O=C1C(=Cc2ccc([N+](=O)[O-])o2)C(=O)N(CCc2ccccc2)S(=O)(=O)N1CCc1ccccc1`, the TGI [1] was 35 µM, the TGI [2] was greater than 100 µM and the TGI [3] was greater than 100 µM. For the same compound, the TGI [4] was 29.9 µM, the TGI [10] was 34.5 µM and the TGI [5] was 44.1 µM. For the same compound, the TGI [7] was greater than 100 µM, the TGI [8] was greater than 100 µM and the TGI [9] was greater than 100 µM.
With `O=C(O)CCCc1cc2c(s1)-c1cccc3cccc-2c13` the TGI [1] was 52 µM, the TGI [2] was greater than 100 µM and the TGI [3] was 53.9 µM. It also gave a TGI [4] greater than 100 µM, a TGI [10] of 51.1 µM and a TGI [6] greater than 100 µM. For the same compound, the TGI [7] was 42.3 µM, the TGI [8] was greater than 100 µM and the TGI [9] was 50.2 µM.
`COC1C(C)OC(OC2CC(C)(O)Cc3cc4c(c(O)c32)C(=O)c2c(O)cc3c(c2C4=O)OC2OC3(C)C(O)C(N(C)C)C2O)C(OC)C1(C)OC` (stereo unspecified) was tested, and the GI50 [1] was 22.6 nM and 66.1 nM, the GI50 [2] was 38 nM and 17.1 nM and the GI50 [3] was 78.4 nM and 38.8 nM. The GI50 [4] was 2.73 nM and 13.2 nM, the GI50 [10] was 93 nM and 18.6 nM and the GI50 [6] was 47.6 nM and 21.9 nM. The TGI [6] was 0.422 µM and 0.452 µM, the GI50 [7] was 63.9 nM and 28.9 nM and the GI50 [8] was 53.8 nM and 35.6 nM. For the same compound, the GI50 [9] was 39.3 nM and the TGI [9] was 0.447 µM and 0.178 µM.
`NC(CSC1(c2ccc(Cl)cc2)c2ccccc2-c2ccccc21)C(=O)O` (stereo unspecified) showed a TGI [1] of 30.3 µM, a TGI [2] of 48.5 µM and a TGI [3] of 34.4 µM. It also gave a TGI [4] of 34.6 µM, a TGI [10] of 30.4 µM and a TGI [5] of 30.6 µM. For the same compound, the TGI [6] was greater than 100 µM, the TGI [7] was 63.2 µM and the TGI [8] was 37.7 µM.
`C=CCCCC(O)c1ccc(C(O)c2cnc3ccccc3c2)o1` (stereo unspecified) was tested, and the GI50 [1] was 17100 nM, the TGI [1] was 33.8 µM and the GI50 [2] was 27900 nM. The TGI [2] was 82.5 µM, the GI50 [3] was 18800 nM and the TGI [3] was 61.4 µM. For the same compound, the GI50 [10] was 28400 nM, the TGI [10] was greater than 100 µM and the GI50 [5] was 9520 nM. For the same compound, the TGI [5] was 22.4 µM, the GI50 [6] was 31400 nM and the TGI [6] was 98.4 µM. It also gave a GI50 [7] of 28100 nM, a TGI [7] of 77.9 µM and a GI50 [8] of 35600 nM. It also gave a TGI [8] greater than 100 µM, a GI50 [9] of 19000 nM and a TGI [9] of 51.4 µM.
Work on `CC(=O)Nc1ccc(Cc2ccc3[nH]c(=O)cc(C)c3c2)cc1` yielded a TGI [1] greater than 100 µM, a TGI [2] greater than 100 µM and a TGI [3] greater than 100 µM. For the same compound, the TGI [4] was greater than 100 µM, the TGI [10] was greater than 100 µM and the TGI [5] was greater than 100 µM. It also gave a TGI [6] greater than 100 µM, a TGI [7] greater than 100 µM and a TGI [8] greater than 100 µM.
`CCOC(=O)CP(=S)(S)c1ccccc1` (stereo unspecified) showed a TGI [1] greater than 100 µM, a TGI [2] greater than 100 µM and a TGI [3] greater than 100 µM. For the same compound, the TGI [10] was greater than 100 µM, the TGI [5] was greater than 100 µM and the TGI [6] was greater than 100 µM. For the same compound, the TGI [7] was greater than 100 µM.
With `C[C@H]1CCC2C(CN3CCCCC3)C(=O)OC2[C@]2(C)C(=O)CC(N3CCCCC3)C12O` (stereo partly specified) the TGI [2] was 7.93 µM, the TGI [3] was 13.1 µM and the TGI [4] was 12 µM. The TGI [10] was 3.25 µM, the TGI [5] was 16.3 µM and the TGI [6] was 97.9 µM. The TGI [7] was 12.3 µM, the TGI [8] was 22.3 µM and the TGI [9] was 18.2 µM.
`COc1cc(OC)c(/C=C/C(=O)c2c(O)cc(OC)c(C3CCN(C)CC3)c2OC)c(OC)c1` showed a GI50 [2] of 1690 nM, a TGI [2] of 3.12 µM and a GI50 [3] of 1460 nM. For the same compound, the TGI [3] was 2.77 µM, the GI50 [4] was 414 nM and the TGI [4] was 1.65 µM. The GI50 [10] was 1860 nM, the TGI [10] was 3.31 µM and the GI50 [5] was 1640 nM. The TGI [5] was 3.07 µM, the GI50 [6] was 1510 nM and the TGI [6] was 2.93 µM. It also gave a GI50 [7] of 1710 nM, a TGI [7] of 3.38 µM and a GI50 [8] of 1560 nM. The TGI [8] was 2.98 µM, the GI50 [9] was 1460 nM and the TGI [9] was 2.82 µM.
